# Experimental data taken from the NIST ThermoML archive (doi:10.1016/j.jct.2011.04.018).
# ± gives the expanded uncertainty stated by the source.
# Assay: activity coefficient (dimensionless); of the first substance listed, at infinite dilution; xn = mol fraction of the nth substance listed
# Conditions: 101 kPa, Liquid, Chromatography, x1 = 0
SMILES,activity coefficient (308.15 K),activity coefficient (318.15 K),activity coefficient (328.15 K),activity coefficient (338.15 K),activity coefficient (348.15 K),activity coefficient (358.15 K),activity coefficient (368.15 K),activity coefficient (378.15 K)
CCCCCCC [heptane] + O=S(=O)([N-]S(=O)(=O)C(F)(F)F)C(F)(F)F.OCCC[n+]1ccccc1,82 ± 5.6,73.8 ± 5.1,66.2 ± 4.5,59.3 ± 4.1,54.3 ± 3.7,49.4 ± 3.4,45.8 ± 3.1,–
C=CCCCC [hex-1-ene] + O=S(=O)([N-]S(=O)(=O)C(F)(F)F)C(F)(F)F.OCCC[n+]1ccccc1,22.7 ± 1.6,21.2 ± 1.4,19.7 ± 1.3,18.4 ± 1.3,17.3 ± 1.2,16.4 ± 1.1,–,–
CCCCCC [hexane] + O=S(=O)([N-]S(=O)(=O)C(F)(F)F)C(F)(F)F.OCCC[n+]1ccccc1,51.3 ± 3.5,46.7 ± 3.2,42.3 ± 2.9,38.5 ± 2.6,35.6 ± 2.4,32.8 ± 2.2,–,–
CO [methanol] + O=S(=O)([N-]S(=O)(=O)C(F)(F)F)C(F)(F)F.OCCC[n+]1ccccc1,–,0.87 ± 0.056,0.836 ± 0.054,0.804 ± 0.052,0.776 ± 0.051,0.749 ± 0.049,0.725 ± 0.048,0.703 ± 0.047
CC1CCCCC1 [methylcyclohexane] + O=S(=O)([N-]S(=O)(=O)C(F)(F)F)C(F)(F)F.OCCC[n+]1ccccc1,38.7 ± 2.6,35.2 ± 2.4,31.9 ± 2.2,29 ± 2,26.8 ± 1.8,24.7 ± 1.7,22.9 ± 1.6,–
CCCCCCCCC [nonane] + O=S(=O)([N-]S(=O)(=O)C(F)(F)F)C(F)(F)F.OCCC[n+]1ccccc1,206 ± 14,181 ± 12,157 ± 11,139 ± 10,125 ± 9,111 ± 8,99.7 ± 6.8,–
C=CCCCCCC [oct-1-ene] + O=S(=O)([N-]S(=O)(=O)C(F)(F)F)C(F)(F)F.OCCC[n+]1ccccc1,58 ± 4,53 ± 3.6,48.5 ± 3.3,44.4 ± 3,41.1 ± 2.8,38.1 ± 2.6,35.6 ± 2.4,–
CCCCCCCC [octane] + O=S(=O)([N-]S(=O)(=O)C(F)(F)F)C(F)(F)F.OCCC[n+]1ccccc1,130 ± 9,116 ± 8,102 ± 7,91.1 ± 6.2,81.3 ± 5.6,73.6 ± 5,67.5 ± 4.6,–
CCCC(C)=O [pentan-2-one] + O=S(=O)([N-]S(=O)(=O)C(F)(F)F)C(F)(F)F.OCCC[n+]1ccccc1,–,0.885 ± 0.056,0.91 ± 0.058,0.937 ± 0.059,0.96 ± 0.06,0.984 ± 0.062,1.01 ± 0.06,1.03 ± 0.06
CCC(=O)CC [pentan-3-one] + O=S(=O)([N-]S(=O)(=O)C(F)(F)F)C(F)(F)F.OCCC[n+]1ccccc1,–,0.936 ± 0.059,0.963 ± 0.061,0.991 ± 0.062,1.02 ± 0.06,1.04 ± 0.07,1.07 ± 0.07,1.09 ± 0.07
CCCCC [pentane] + O=S(=O)([N-]S(=O)(=O)C(F)(F)F)C(F)(F)F.OCCC[n+]1ccccc1,32.9 ± 2.3,30.2 ± 2.1,27.9 ± 1.9,25.8 ± 1.8,24.3 ± 1.7,–,–,–
CCCO [propan-1-ol] + O=S(=O)([N-]S(=O)(=O)C(F)(F)F)C(F)(F)F.OCCC[n+]1ccccc1,–,1.6 ± 0.11,1.52 ± 0.1,1.46 ± 0.1,1.39 ± 0.09,1.34 ± 0.09,1.28 ± 0.08,1.24 ± 0.08
C1CCOC1 [tetrahydrofuran] + O=S(=O)([N-]S(=O)(=O)C(F)(F)F)C(F)(F)F.OCCC[n+]1ccccc1,–,0.695 ± 0.047,0.727 ± 0.048,0.757 ± 0.05,0.784 ± 0.051,0.812 ± 0.053,0.839 ± 0.054,0.866 ± 0.055
c1ccsc1 [thiophene] + O=S(=O)([N-]S(=O)(=O)C(F)(F)F)C(F)(F)F.OCCC[n+]1ccccc1,–,1.27 ± 0.08,1.28 ± 0.08,1.29 ± 0.08,1.29 ± 0.08,1.3 ± 0.08,1.31 ± 0.09,1.31 ± 0.09
Cc1ccccc1 [toluene] + O=S(=O)([N-]S(=O)(=O)C(F)(F)F)C(F)(F)F.OCCC[n+]1ccccc1,–,2.36 ± 0.16,2.37 ± 0.16,2.38 ± 0.16,2.39 ± 0.16,2.4 ± 0.16,2.41 ± 0.16,2.42 ± 0.16
O [water] + O=S(=O)([N-]S(=O)(=O)C(F)(F)F)C(F)(F)F.OCCC[n+]1ccccc1,–,1.53 ± 0.1,1.42 ± 0.09,1.33 ± 0.09,1.24 ± 0.08,1.17 ± 0.07,1.1 ± 0.07,1.03 ± 0.06
